This is an account of results in US20110230423A1, “THERAPY AND MEDICAMENT USING INTEGRIN LIGANDS FOR TREATING CANCER” (priority 2008, published 2011).

Series [1] deals with newly diagnosed glioblastoma (GBM). Description: Phase I/IIa trial of cilengitide and temozolomide with concomitant radiotherapy, followed by maintenance, in newly diagnosed glioblastoma. The class given is in vivo, human. As to the method: Purpose: To evaluate safety, toxicity, and efficacy of the combination of the cyclic RGD pentapeptide Cilengitide (=cyclo-(Arg-Gly-Asp-DPhe-NMe-Val)), an inhibitor of integrins avβ3 and avβ5, in addition to standard temozolomide (TMZ) and radiotherapy (RT).
Patients and methods: Fifty-two pts (PS 0-1: 92%, 2: 8%; median age 57 yrs) after biopsy (n=9/17%) or tumor resection (n=43/83%) were treated with standard TMZ/RT (Stupp et al. NEJM 2005). In addition Cilengitide (500 mg i.v., 2×/week) was started one week before TMZ/RT and given throughout for the duration of chemotherapy or until progression. Primary endpoint was progression free survival rate at 6 months (target: 65%). Patients were followed with MRI every 2 months. Histopathologic diagnosis and MRI imaging were independently reviewed, MGMT promoter methylation status was assessed in 45 (86.5%) pts.

Series [2] deals with U251 human glioblastoma cells. The series can be described thus: Rat orthotopic glioblastoma model radiotherapy, cilengitide scheduling experiments. Type of series: in vivo, NIH rnu nude rats. The settings on record: individual animals. Here is the method:
NIH rnu nude rats are anaesthetized, restrained, and injected intracerebrally 1 mm retro orbitally, 3 mm to the right of the bregma and at a depth of 2.5 mm with 5×10E5 U251 human glioblastoma cells suspended in 10 ul of culture medium, using a #2701 Hamilton syringe fitted with a 26 gauge needle, essentially as previously described (Engebraaten et al., 1999). After 14 days, cilengitide (4 mg/kg) is given as an intraperitoneal bolus in PBS, at various time (8 h, 4 h, 2 h, 1 h) prior to a single treatment with single, collimated, dorsal-ventral beam of 6 MV x-rays, so that 95-100% of the central axis dose of 25 Gy hit the tumor volume (Kim et al., 1999). Each of the 7 subsequent days the animals also received an identical i.p. bolus of cilengitide. The animals are maintained under ad libitum food and drink until they become moribund, or are sampled for tissue analysis (in the t-4 and t-8 h groups, where the animals are healthy past 230 days post tumor injection). A Kaplan-Meier survival curve is calculated and plotted (FIG. 1) from the raw data (Table 1). All animals in the RT monotherapy group died by 120 d.

Series [3] concerns brain metastases. As to conditions: hypofractionation approach with or without the radiosensitizer; cited from earlier work.

For the compound `CC(C)[C@H]1C(=O)N[C@@H](CCCN=C(N)N)C(=O)NCC(=O)N[C@@H](CC(=O)O)C(=O)N[C@H](Cc2ccccc2)C(=O)N1C` [Cilengitide, cyclo-(Arg-Gly-Asp-DPhe-NMeVal)], the “Treatment related non-hematologic grade 3 toxicities (patients)” value in series [1] (Cilengitide 500 mg i.v. 2x/week plus standard TMZ/RT, n=3/52) is on record as 5.7%. Besides, the “Tolerability of the combination” value in series [1] (Cilengitide and TMZ/RT) is “well tolerated”. In series [1] (patient with a history of sigmoid diverticulosis), the “sigmoid perforation (grade 2), patients” value was “One”. Besides, the “Days Post Implant” value in series [2] (cilengitide 4 mg/kg i.p. 4 hours pre-irradiation (Rt 25 Gy) plus 7 subsequent daily boluses) and in series [2] (cilengitide 4 mg/kg i.p. 8 hours pre-irradiation (Rt 25 Gy) plus 7 subsequent daily boluses) was above 230 days each time.

As for `COCC(O)Cn1ccnc1[N+](=O)[O-]` (stereo not drawn) [misonidazol], the median survival in series [3] is at most 3.9 months.
